Laboratory results: patent publication US8383550B2, “Defoliant” (Bayer Cropscience AG, priority 2009, dated 2013)

What was measured:
[1] = system: Cotton plants of the cultivar "Carmen"; experiment: Leaf drop effect on cotton plants after spray application (greenhouse); assay type: in vivo; settings: 1 l/ha Actirob B added
Method: (§1) A water application rate of 300 l/ha was initially charged. The components herbicide and adjuvant were then added with stirring at the application rates and in the manner stated in the tables, such that a homogeneous spray liquor was formed. Here, the active ingredients were employed as suspension concentrates (thidiazuron as ®Escalate liquid SC500. Metribuzin as ®Sencor SC 80, thidiazuron+diuron as ®Dropp Ultra SC180) from Bayer CropScience AG. The adjuvant used was ®Actirob B (Novance).
(§2) Cotton seeds of the cultivar “Carmen” were sown at a depth of 1 cm and cultivated in a greenhouse cabin (20000-50000 LUX light: 14 hrs/day; temperature at night: 22° C., during the day: 30° C., rel. atmospheric humidity at night: 65%, during the day 50%) until they had reached the 6-8 leaf stage.
(§3) The plants were treated on a laboratory spray track with spray liquors of thidiazuron and thidiazuron with combination partners. The water application rate for the spray application was 300 l/ha. After the treatment, the plants were returned to the greenhouse cabin.
4 and 8 days after the application, the leaf drop effect was evaluated (leaf drop %): • 0%=no noticeable effect compared to untreated plants; • 100%=all leaves have dropped off.

[2] = system: Cotton plants of the cultivar "Carmen"; experiment: Regrowth of cotton plants, by weighing newly formed leaf material; assay type: in vivo; settings: 2 weeks after application, 1 l/ha Actirob B added, repeated twice
Method: as §1, §2, §3
2 weeks after the application, the regrowth of the plants was assessed by weighing the newly formed leaf material. The tabular values express the regrowth as a percentage of the untreated control.

[3] = Test 1, dose 30 g of a.i./ha, 0%=no effect, 100%=all leaves dropped

| Compound | Leaf drop [%] 4 days after application ([1]; Test 1, dose 15 g of a.i./ha) [%] | Leaf drop [%] 8 days after application ([1]; Test 1, dose 15 g of a.i./ha) [%] | Leaf drop [%] 8 days after application ([1]; Test 1, dose 30 g of a.i./ha) [%] | Leaf drop [%] 4 days after application [1, 3] [%] | Leaf drop [%] 4 days after application ([1]; Test 2, dose 15 g of a.i./ha) [%] | Leaf drop [%] 8 days after application ([1]; Test 2, dose 15 g of a.i./ha) [%] | Leaf drop [%] 4 days after application ([1]; Test 2, dose 30 g of a.i./ha) [%] | Leaf drop [%] 8 days after application ([1]; Test 2, dose 30 g of a.i./ha) [%] | Regrowth [%] as a percentage of the untreated control ([2]; Table 3, dose 15 g of a.i./ha) [%] | Regrowth [%] as a percentage of the untreated control ([2]; Table 3, dose 30 g of a.i./ha) | Regrowth [%] as a percentage of the untreated control ([2]; Table 4, dose 15 g of a.i./ha) [%] | Regrowth [%] as a percentage of the untreated control ([2]; Table 4, dose 30 g of a.i./ha) [%] |
| --- | --- | --- | --- | --- | --- | --- | --- | --- | --- | --- | --- | --- |
| CSc1nnc(C(C)(C)C)c(=O)n1N [metribuzin] | 0 | 0 | 0 | 0 | 0 | 0 | 0 | 0 | 0 | 0% | 0 | 0 |
| O=C(Nc1ccccc1)Nc1cnns1 [thidiazuron] | – | – | 63 | 0 | – | – | – | – | – | +60% | – | – |
